In brackets after ≈: the same amount, converted by molar mass.
How the values were obtained:
[1] = test system: HCT-116; assay: Cytotoxicity against human HCT116 cells; type: functional, cell-based
[2] = test system: Staphylococcus aureus; assay: Antibacterial activity against methicillin-resistant Staphylococcus aureus; type: functional
[3] = Homo sapiens, HCT-116, read-out: IC50

Row | SMILES | IC50 [1, 3] [µM] | MIC [2] [µg/mL] | IC50 ([1]; hct-116)
1 | CC(C)=CCC/C(C)=C\CC/C(C)=C\Cc1cc[nH]c1 | 13.7 | 2.8 (≈ 10.3 µM) | 
2 | CC(C)=CCC/C(C)=C\CC/C(C)=C\Cc1c[nH]c([N+](=O)[O-])c1 | 9.2 | > 20 | 
3 | O=[N+]([O-])c1ccc[nH]1 |  | > 20 | Not Active
4 | O=[N+]([O-])c1cc[nH]c1 |  | > 20 | Not Active
5 | CC(C)=CCC/C(C)=C\CC/C(C)=C\Cc1ccc[nH]1 | 24.4 | > 20 | 
6 | CC(C)=CCC/C(C)=C/CC[C@](C)(O)[C@H](O)Cc1c[nH]c([N+](=O)[O-])c1 [NITROPYRROLIN A] | 31.1 | > 20 | 
7 | CC(C)=CCC/C(C)=C/CC[C@@]1(C)O[C@@H]1Cc1c[nH]c([N+](=O)[O-])c1 [NITROPYRROLIN B] | 31 | > 20 | 
8 | CC(C)=CCC/C(C)=C/CC[C@@](C)(Cl)[C@H](O)Cc1c[nH]c([N+](=O)[O-])c1 [NITROPYRROLIN C] |  | > 20 | Not Active
9 | CC(C)=CCC/C(C)=C/C/C=C(\C)[C@H](O)Cc1c[nH]c([N+](=O)[O-])c1 [NITROPYRROLIN D] | 5.7 | > 20 | 
10 | C/C(=C\CC[C@@](C)(Cl)[C@H](O)Cc1c[nH]c([N+](=O)[O-])c1)CC[C@@H](O)C(C)(C)O [NITROPYRROLIN E] |  | > 20 | Not Active
